Values quoted from earlier work as cited in US20180066081A1, “SUBSTITUTED CYCLIC ETHER POLYMERS AND CONJUGATES AND USES THEREOF” (UNIVERSITY OF IOWA RESEARCH FOUNDATION, priority 2015, published 2018).

Details: chlorhexidine rinses (e.g., PERIDEX, chlorhexidine gluconate 0.12%); from package insert

active compound retained in the oral cavity following application: about 30%
Compound: [H]/N=C(\N/C(=N/[H])NCCCCCCNC(=N)NC(=N)Nc1ccc(Cl)cc1)Nc1ccc(Cl)cc1 [chlorhexidine]
